System: skeletal muscle cells
Test: In vitro uptake of 2-DG (glucose derivative) in skeletal muscle cells
Format: cell-based, rat
Procedure: The assay was performed according to manufactures' protocol. Briefly, […] L6 cell line cells were seeded and grown to confluency in white 96 well plates in culture medium containing 10% FBS (serum). After treating with various nutrients with or without insulin cells were starved by incubating in DMEM without glucose and serum. Samples were processed using Glucose Uptake Assay kit according to manufacturer's protocol that uses the glucose analog 2-deoxyglucose (2-DG) to detect and quantify glycose uptake in cells. Luminescence was measured by a Tecan luminometer. 4 repetitions were performed for each treatment when testing individual components and 3 repetitions when testing mixes.

| Compound | stimulating effect on glucose uptake by individual compounds compared to controls (FIG. 6, 0.0001 ug/ml, 24 h at 37° C.) | glucose uptake by the cells, insulin alone (FIG. 8, insulin alone at different concentrations) |
| --- | --- | --- |
| [Cr] [chromium] | highest stimulating effect | – |
| Insulin: human insulin obtained from Sigma | – | concentration dependent increase |
